In article PMC3944116 (CPT: Pharmacometrics & Systems Pharmacology, 2014):

Assays:
[1] = test system: CYP3A5; test: Pharmacogenetic covariate analysis: CYP3A5*3 on CL/F; assay type: in vivo, human; settings: final model; fractional change of CL/F in CYP3A5*1 carriers
[2] = Population PK modeling; settings: for Q/F, intercompartmental clearance: F fixed 0.5/1/0.23
[3] = test system: CYP3A4/CYP3A5; settings: for Mean value (%), difference in CL/F, cluster C1 vs C4: C1: CYP3A5*1 noncarriers and CYP3A4*22 carriers; for Mean value (%), difference in CL/F, cluster C2 vs C4: C2: CYP3A5*1 noncarriers and CYP3A4*22 noncarriers
[4] = test system: CYP3A4; test: Pharmacogenetic covariate analysis: CYP3A4*22 on CL/F; assay type: in vivo, human; settings: stated as % lower in text; univariate on base model
[5] = cited from earlier work
[6] = base model without covariates, population estimate
[7] = final model with covariates, population estimate
[8] = final model, median of 1,000 bootstrap runs

CYP3A5*3 on CL/F, covariate effect [1]	Lagtime of absorption [2, 6] [h]	Q/F, intercompartmental clearance [2, 6] [L/h]	Ka [2, 7] [h⁻¹]	Lagtime [2, 7] [h]	Q/F [2, 7] [L/h]	Vc/F [2, 7] [L]	DDPR ≤25 mg (IOV F) [2, 8]	HTC on CL/F + IOV F, covariate effect ([2]; final model, hematocrit)	Mean value (%), difference in CL/F, cluster C1 vs C4 ([3]; univariate on base model) [%]	difference in clearance introduced for noncarriers of the CYP3A5*1 allele by CYP3A4*22 carriership ([3]; C1 vs C2) [%]	Mean value (%), difference in CL/F, cluster C2 vs C4 ([3]; univariate on base model) [%]	Mean value (%), difference in CL/F, cluster C3 vs C4 ([3]; C3: CYP3A5*1 carriers and CYP3A4*22 carriers, univariate on base model) [%]	lower clearance of CYP3A4*22 carriers compared with noncarriers [4] [%]	Vp/F, apparent peripheral distribution volume ([2]; base model without covariates, population estimate, fixed to 500 for tacrolimus) [L]	Vp/F ([2]; final model with covariates, fixed to 500 for tacrolimus) [L]	CL/F [2, 8] [L/h]	IBW on Vc/F, covariate effect ([2]; final model, ideal BW centered on population median, exponential function)	SMILES	plasma fraction bound to plasma proteins [5] [%]
0.52	0.81	17.2	0.55	0.81	21	25.5	0.32	−0.587	−47	14	−33	−3						C=CC[C@@H]1/C=C(\C)C[C@H](C)C[C@H](OC)[C@H]2O[C@@](O)(C(=O)C(=O)N3CCCC[C@H]3C(=O)O[C@H](/C(C)=C/[C@@H]3CC[C@@H](O)[C@H](OC)C3)[C@H](C)[C@@H](O)CC1=O)[C@H](C)C[C@@H]2OC [Tacrolimus]	
	0.71	42.7	7	0.71	43.1	140			−15		−10		7	348	343	16.7	−0.96	CO[C@H]1C[C@@H]2CC[C@@H](C)[C@@](O)(O2)C(=O)C(=O)N2CCCC[C@H]2C(=O)O[C@H]([C@H](C)C[C@@H]2CC[C@@H](OCCO)[C@H](OC)C2)CC(=O)[C@H](C)/C=C(\C)[C@@H](O)[C@@H](OC)C(=O)[C@H](C)C[C@H](C)/C=C/C=C/C=C/1C [Everolimus]	75
